# Measurements taken from ChEMBL document CHEMBL1139099, “Novel trifluoroacetophenone derivatives as malonyl-CoA decarboxylase inhibitors” (Bioorg Med Chem Lett, 2007).
# Molecular target: T1, Malonyl-CoA decarboxylase, mitochondrial (Homo sapiens, UniProt O95822)
# T1 sequence (O95822 whole entry): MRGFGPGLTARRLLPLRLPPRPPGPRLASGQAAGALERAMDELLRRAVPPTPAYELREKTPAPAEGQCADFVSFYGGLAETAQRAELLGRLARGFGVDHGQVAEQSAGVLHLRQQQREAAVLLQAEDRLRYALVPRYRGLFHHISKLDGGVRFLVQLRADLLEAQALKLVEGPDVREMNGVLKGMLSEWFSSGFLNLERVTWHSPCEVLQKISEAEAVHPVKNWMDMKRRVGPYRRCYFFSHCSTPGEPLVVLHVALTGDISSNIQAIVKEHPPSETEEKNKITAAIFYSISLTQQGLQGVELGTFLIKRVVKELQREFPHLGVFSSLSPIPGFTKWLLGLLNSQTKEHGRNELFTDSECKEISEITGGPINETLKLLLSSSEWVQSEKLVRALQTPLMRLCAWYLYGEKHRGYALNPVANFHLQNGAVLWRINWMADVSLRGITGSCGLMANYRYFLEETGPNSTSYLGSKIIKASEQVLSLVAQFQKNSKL
# Test: Inhibition of MBP fused human MCD
structure (smiles),measurement,value
O=C(NCC1CCCCC1)c1ccc(C(=O)C(F)(F)F)cc1,IC50,2.3 µM
